# “Also recorded” adds a separate entry of the source. Residues, ends and D or L forms follow the SMILES beside them.
# What was measured:
# [1] = test system: LHRH-positive lung cancer cells; test: Cytotoxicity (MTT) and competitive inhibition by LHRH peptide; format: cell-based
# Experimental: (§1) Cytotoxicity, Apoptosis Induction and Immune Response. The toxicities of the developed formulations were compared with a commercially used EGFR inhibitor gefitinib in three types of human lung cancer cells with different resistance to the drug. […] Cytotoxicity and apoptosis induction were analyzed by a modified 3-(4,5-Dimethylthiazol-2-yl)-2,5-diphenyltetrazolium bromide (MTT) assay and cell death detection ELISA Plus kit (Roche, Nutley, NJ), respectively. The cells were seeded on a 96 well plate at 10,000 cells per well with 100 μl of growth media in each well and placed in the incubator for 24 hours. After 24 hours, the media was removed and the cells were treated with varying concentrations of above indicated substances. The concentrations of tested substances were prepared using a serial dilution (1:2) to make 12 different working solutions for the cytotoxicity measurement.
# [2] = test system: NCI-H3255 cells; test: Cytotoxicity (MTT); format: cell-based, human; settings: 72 h, 1 μM
# Experimental: as §1
# [3] = test system: NCI-H1781 cells; test: Cytotoxicity (MTT); format: cell-based, human; settings: 72 h, 1 μM
# Experimental: as §1
# [4] = test system: A549 cells; test: Cytotoxicity (MTT); format: cell-based, human; settings: 72 h, 1 μM
# [5] = test system: NCI-H1781, A549 and NCI-H3255 NSCLC cell lines; test: Apoptosis induction (cell death detection ELISA); format: cell-based, human; settings: 72 h; 1 μM gefitinib or 0.3 ng/ml nanocarrier
# Experimental: as §1
# The control cells were incubated with fresh media. Previously validated in our laboratory MTT and apoptosis induction measurement protocols were used.
# [6] = test system: human lung cancer cells; test: Orthotopic lung cancer model treated with liposomal cisplatin or carboplatin; format: in vivo, mice; settings: intravenous, 2.5 mg/kg
# Experimental: Orthotopic lung cancer mouse model was created by intratracheal instillation of human lung cancer cells. The progression of tumor growth was monitored using bioluminescent and magnetic resonance (MRI) imaging. Luciferase transfected cancer cells were visualized in live anesthetized animals using in-vivo bioluminescence IVIS system (Xenogen, Alameda, CA). Luciferin (150 mg/kg) was intraperitoneally administered 10-15 minutes before imaging. All imaging procedures were performed at special imaging facilities of the Rutgers University Molecular Imaging Center as previously described. Mice were anesthetized with isoflurane (4% for induction of anesthesia and 1-2% for maintenance) using XGI-8 Gas Anesthesia System (Xenogen, Alameda, CA) for all imaging procedures. MRI was performed using a 1 T M2™ whole body scanner (Aspect Imaging, Shoham, Israel). Images (repetition time 2607 ms, echo time 44 ms) were recorded in Fast Spin Echo sequence. At a spatial resolution of 312 μm, the tumors were coronal imaged in a single section through the mouse body using an image matrix of 256×256, a field of view of 80 mm^2, and 4 excitation. Magnetic resonance signal and tumor volume were calculated using VivoQuant 1.21 software (Invicro, Boston, MA).
# In order to deliver liposome-based system by inhalation, a Collison nebulizer (BGI, Inc., Waltham, MA) was connected to four-port nose-only exposure chambers (the chamber was made by CH Technologies, Westwood, NJ according to our design). […] The installation was designed and regime of inhalation was selected to keep the inhalation dosage controllable and uniform from animal to animal with a minimal damage to the nanoparticles. The solution of NLC was aerosolized at a flow rate of 2 L/min and then diluted by an additional 2 L/min of air. […] It was also shown that the aerosol distribution between the four ports of the chamber was homogenous. The dose of Cis and Carb in all drug-containing formulations was 2.5 mg/kg for the single administration.
# [7] = test system: A549 lung cancer cells; test: Orthotopic lung cancer model, tumor volume; format: in vivo, mice; settings: intravenous, TAX 2.5 mg/kg
# Experimental: In Vivo Lung Cancer Model, Imaging and Treatment. All animal experiments were carried out according to the protocol approved by Institutional Animal Care and Use Committee (IACUC). Nude mice were purchased from the approved commercial vendor (Taconic, Germantown, NY). All aspects of the program for procurement, conditioning/quarantine, housing management, veterinary care and disposal of carcasses followed the guidelines set forth in the NIH Guide for the Care and Use of Laboratory Animals. Animals were housed in the […]—accredited animal facility with free access to food and water. Veterinary care was supplied by Rutgers University Lab Animal Services. Orthotopic lung cancer mouse model was created by intratracheal instillation of A549 lung cancer cells as previously described. The progression of tumor growth was monitored using bioluminescent and magnetic resonance (MRI) imaging. Luciferase transfected cancer cells were visualized in live anesthetized animals using in-vivo bioluminescence IVIS system (Xenogen, Alameda, CA). Luciferin (150 mg/kg) was intraperitoneally administered 10-15 minutes before imaging. […] Images (repetition time 2607 ms, echo time 44 ms) were recorded in Fast Spin Echo sequence. […] Magnetic resonance signal and tumor volume were calculated using VivoQuant 1.21 software (Invicro, Boston, MA). […]
compound,measurement,setting,value
"CCNC(=O)[C@@H]1CCCN1C(=O)[C@H](CCCNC(=N)N)NC(=O)[C@H](CC(C)C)NC(=O)[C@@H](CCCCNC(=O)[C@H](N)CS)NC(=O)[C@H](Cc1ccc(O)cc1)NC(=O)[C@H](CO)NC(=O)[C@H](Cc1c[nH]c2ccccc12)NC(=O)[C@H](Cc1c[nH]cn1)NC(=O)[C@@H](N)CCC(N)=O [LHRH peptide, Gln-His-Trp-Ser-Tyr-DLys(D-Cys)-Leu-Arg-Pro] (HELM PEPTIDE1{Q.H.W.S.Y.[dK].L.R.P.[CCN[*:1]]}|PEPTIDE2{[dC]}$PEPTIDE1,PEPTIDE2,6:R3-1:R2$$$V2.0)",cytotoxicity,[1],did not demonstrate any toxicity
same,effect of LHRH receptor ligand on cytotoxicity of LHRH-NLC-TAX,[1]; cells incubated with different concentrations of LHRH peptide,limited cytotoxicity of LHRH-NLC-TAX in a concentration-dependent manner
COc1cc2ncnc(Nc3ccc(F)c(Cl)c3)c2cc1OCCCN1CCOCC1 [gefitinib],sensitivity to gefitinib,[2],the most sensitive to gefitinib
same,sensitivity to gefitinib,[3],most resistant to gefitinib
same,sensitivity to gefitinib,[4],moderate sensitivity to gefitinib
same,apoptosis induction,[5],correlated with its cytotoxicity
"N.N.[Cl][Pt][Cl] [Cis, cisplatin]",antitumor effect,[6],slightly slowed the tumor progression
"N.N.O=C([O-])C1(C(=O)[O-])CCC1.[Pt+2] [Carb, carboplatin]",antitumor effect,[6],slightly slowed the tumor progression; also recorded: somewhat higher antitumor activity
"CC(=O)O[C@H]1C(=O)[C@@]2(C)[C@H]([C@H](OC(=O)c3ccccc3)[C@]3(O)C[C@H](OC(=O)[C@H](O)[C@@H](NC(=O)c4ccccc4)c4ccccc4)C(C)=C1C3(C)C)[C@]1(OC(C)=O)CO[C@@H]1C[C@@H]2O [TAX, Paclitaxel]",decrease of lung tumor volume at the end of the experiment,[7],1.1 times

# Reference: US11896713B2, “Strategies to enhance lung cancer treatment” (Rutgers, The State University of New Jersey, priority 2020, dated 2024)
